We go through 20 compounds from PubChem BioAssay AID248 (DTP/NCI, 2004).

For this experiment, the system named is L1210 leukemia ip in BDF1 mice, survival T/C. Nature of the experiment: NCI In Vivo Anticancer Drug Screen. Data for tumor model L1210 Leukemia (intraperitoneal) in B6D2F1 (BDF1) mice. The settings on record: endpoint: mean survival time, higher = longer survival. Put shortly:
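Value reflects the ratio of survival in compound-treated mice to survival in vehicle-treated controls, with both groups carrying the same transplanted tumor.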

Setting [1] is: dose: 100.0 mg/kg/injection, schedule: Q04DX003 (ip), vehicle: saline.
Where [2] appears, read: dose: 200.0 mg/kg/injection, schedule: Q04DX003 (ip), vehicle: saline.
The mark [3] stands for this setting: dose: 400.0 mg/kg/injection, schedule: Q04DX003 (ip), vehicle: saline.
Setting [4] is: dose: 100.0 mg/kg/injection, schedule: Q01DX001 (ip), vehicle: saline.
Setting [5] is: dose: 200.0 mg/kg/injection, schedule: Q01DX001 (ip), vehicle: saline.
[6] abbreviates: dose: 5.0 mg/kg/injection, schedule: Q01DX001 (ip), vehicle: saline.
Where [7] appears, read: dose: 10.0 mg/kg/injection, schedule: Q01DX001 (ip), vehicle: saline.
The mark [8] stands for this setting: dose: 20.0 mg/kg/injection, schedule: Q01DX001 (ip), vehicle: saline.
Setting [9] is: dose: 100.0 mg/kg/injection, schedule: Q01DX009 (ip), vehicle: Klucel (hydroxypropylcellulose) (HPC).
[10] abbreviates: dose: 200.0 mg/kg/injection, schedule: Q01DX009 (ip), vehicle: Klucel (hydroxypropylcellulose) (HPC).
Where [11] appears, read: dose: 400.0 mg/kg/injection, schedule: Q01DX009 (ip), vehicle: Klucel (hydroxypropylcellulose) (HPC).
Setting [12] is: dose: 100.0 mg/kg/injection, schedule: Q04DX003 (ip), vehicle: Klucel (hydroxypropylcellulose) (HPC).
[13] abbreviates: dose: 200.0 mg/kg/injection, schedule: Q04DX003 (ip), vehicle: Klucel (hydroxypropylcellulose) (HPC).
The mark [14] stands for this setting: dose: 400.0 mg/kg/injection, schedule: Q04DX003 (ip), vehicle: Klucel (hydroxypropylcellulose) (HPC).
The mark [15] stands for this setting: dose: 100.0 mg/kg/injection, schedule: Q04DX002 (ip), vehicle: saline with Tween-80.
Setting [16] is: dose: 200.0 mg/kg/injection, schedule: Q04DX002 (ip), vehicle: saline with Tween-80.
[17] abbreviates: dose: 400.0 mg/kg/injection, schedule: Q04DX002 (ip), vehicle: saline with Tween-80.

The structures appear in SMILES notation. “And” between values parts separate entries of the source, which are not always exact repeats. Equal values may be shown once. Toxic doses and inconclusive results are not listed.

For the compound `O=C1NC(=S)S/C1=C\c1ccc(Cl)c(Cl)c1`, the T/C was 97 % of control (dose: 100.0 mg/kg/injection, schedule: Q01DX009 (ip), vehicle: saline with Tween-80) and 95 % of control (dose: 200.0 mg/kg/injection, schedule: Q01DX009 (ip), vehicle: saline with Tween-80).

On to `Cc1ccccc1C(C)(O)Cc1nccn1Cc1ccccc1` (stereo not given), for which the T/C runs as follows: under setting [1], 90 % of control; under setting [2], 95 % of control; under setting [3], 103 % of control.

Turning to `CC(=O)Oc1ccc2c(C)cc(=O)oc2c1`, the T/C was 100 % of control under setting [4] and 109 % of control under setting [5].

In the case of `O=C(O)C(CS)NS(=O)(=O)Cc1ccccc1` (stereo not given), the T/C is, setting by setting: (dose: 100.0 mg/kg/injection, schedule: Q01DX001 (ip), vehicle: other) 104 % of control; (dose: 200.0 mg/kg/injection, schedule: Q01DX001 (ip), vehicle: other) 94 % of control; (dose: 400.0 mg/kg/injection, schedule: Q01DX001 (ip), vehicle: other) 100 % of control.

For the compound `N#C[S-].N#C[S-].N#C[S-].N#C[S-].[Co]`, the T/C runs as follows: under setting [6], 96 % of control; under setting [7], 104 % of control; under setting [8], 106 % of control.

For `S=C1NC(c2ccc(Cl)cc2)N2C(=S)NC(c3ccc(Cl)cc3)N12` (stereo not given), the T/C by setting is: (dose: 100.0 mg/kg/injection, schedule: Q01DX009 (ip), vehicle: gum acacia) 98 % of control; (dose: 100.0 mg/kg/injection, schedule: Q04DX003 (ip), vehicle: gum acacia) 104 % of control; (dose: 200.0 mg/kg/injection, schedule: Q01DX009 (ip), vehicle: gum acacia) 93 % of control; (dose: 200.0 mg/kg/injection, schedule: Q04DX003 (ip), vehicle: gum acacia) 101 % of control; (dose: 400.0 mg/kg/injection, schedule: Q04DX003 (ip), vehicle: gum acacia) 98 % of control.

As for `O=NN(CCBr)C(=O)Nc1ccccc1`, the T/C is 153 % of control (dose: 111.0 mg/kg/injection, schedule: Q01DX001 (ip), vehicle: carboxymethylcellulose (CMC)); 161 % of control (dose: 222.0 mg/kg/injection, schedule: Q01DX001 (ip), vehicle: carboxymethylcellulose (CMC)); 124 % of control (dose: 444.0 mg/kg/injection, schedule: Q01DX001 (ip), vehicle: carboxymethylcellulose (CMC)).

With `CC(=O)Nc1ccc(NC(=O)C2CC2)cc1`, the T/C under setting [9] was 95 % of control, the T/C under setting [10] is 109 % of control and the T/C under setting [11] is 104 % of control.

For the compound `CC(=O)NC(CCC(N)=O)C(=O)O` (stereo not given), the T/C was 99 % of control (dose: 100.0 mg/kg/injection, schedule: Q04DX002 (ip), vehicle: saline); 89 % of control (dose: 200.0 mg/kg/injection, schedule: Q04DX002 (ip), vehicle: saline); 96 % of control (dose: 400.0 mg/kg/injection, schedule: Q04DX002 (ip), vehicle: saline).

Turning to `CCCCCCCCCCCCn1c(C)nc2ccccc21`, the T/C was 94 % of control (dose: 2.4 mg/kg/injection, schedule: Q03HX024 (ip), vehicle: saline); 91 % of control (dose: 3.6 mg/kg/injection, schedule: Q03HX024 (ip), vehicle: saline); 104 % of control under setting [6]; 105 % of control (dose: 5.0 mg/kg/injection, schedule: Q04DX003 (ip), vehicle: carboxymethylcellulose (CMC)); 97 % of control (dose: 5.4 mg/kg/injection, schedule: Q03HX024 (ip), vehicle: saline); 96 % of control (dose: 8.0 mg/kg/injection, schedule: Q03HX024 (ip), vehicle: saline). Further, the T/C is 101 % of control under setting [7]; 106 % of control (dose: 10.0 mg/kg/injection, schedule: Q04DX003 (ip), vehicle: carboxymethylcellulose (CMC)); 116 % of control (dose: 12.0 mg/kg/injection, schedule: Q01DX009 (ip), vehicle: saline); 104 % of control (dose: 12.0 mg/kg/injection, schedule: Q03HX024 (ip), vehicle: saline); 118 % of control (dose: 18.0 mg/kg/injection, schedule: Q01DX009 (ip), vehicle: saline); 104 % of control under setting [8]. The T/C is, setting by setting: (dose: 20.0 mg/kg/injection, schedule: Q04DX003 (ip), vehicle: carboxymethylcellulose (CMC)) 108 % of control; (dose: 24.0 mg/kg/injection, schedule: Q01DX001 (ip), vehicle: saline) 106 % of control; (dose: 24.0 mg/kg/injection, schedule: Q04DX003 (ip), vehicle: saline) 113 % of control; (dose: 27.0 mg/kg/injection, schedule: Q01DX009 (ip), vehicle: saline) 113 % of control; (dose: 36.0 mg/kg/injection, schedule: Q01DX001 (ip), vehicle: saline) 105 % of control; (dose: 36.0 mg/kg/injection, schedule: Q04DX003 (ip), vehicle: saline) 104 % of control. Also, the T/C (dose: 40.0 mg/kg/injection, schedule: Q01DX001 (ip), vehicle: saline) is 112 % of control.

For `CCCCOCN1COCC1(C)C`, the T/C runs as follows: (dose: 100.0 mg/kg/injection, schedule: Q04DX003 (ip), vehicle: saline with Tween-80) 108 % of control; (dose: 200.0 mg/kg/injection, schedule: Q04DX003 (ip), vehicle: saline with Tween-80) 106 % of control.

`c1ccc(CC2CCCCCC2)cc1`: the T/C is 96 % of control under setting [9]; 100 % of control under setting [12]; 101 % of control (dose: 150.0 mg/kg/injection, schedule: Q01DX009 (ip), vehicle: Klucel (hydroxypropylcellulose) (HPC)); 102 % of control under setting [10]; 91 % of control under setting [13]; 96 % of control under setting [14].

For `CC1(C)CN1Sc1ccc([N+](=O)[O-])cc1` (stereo not given), the T/C (dose: 25.0 mg/kg/injection, schedule: Q04DX002 (ip), vehicle: Klucel (hydroxypropylcellulose) (HPC)) was 107 % of control; the T/C (dose: 50.0 mg/kg/injection, schedule: Q04DX002 (ip), vehicle: Klucel (hydroxypropylcellulose) (HPC)) was 103 % of control; the T/C (dose: 100.0 mg/kg/injection, schedule: Q04DX002 (ip), vehicle: Klucel (hydroxypropylcellulose) (HPC)) is 96 % of control and 107 % of control.

With `C1CCC2C(C1)CCC1C3CCCC3OCN21` (stereo not given), the T/C under setting [15] is 96 % of control, the T/C under setting [16] was 96 % of control and the T/C under setting [17] is 93 % of control.

Turning to `NN1CC(=O)NC1=O`, the T/C runs as follows: under setting [1], 100 % of control; under setting [2], 102 % of control; under setting [3], 100 % of control.

With `CCN1CCCC(Nc2cc(C)nc(Nc3nc4cc(Cl)c(Cl)cc4[nH]3)n2)C1` (stereo not given), the T/C by setting is: (dose: 25.0 mg/kg/injection, schedule: Q01DX009 (ip), vehicle: saline with Tween-80) 94 % of control; under setting [4], 98 % of control.

Turning to `O=[N+]([O-])c1ccc(/C([O-])=C(\C(=S)Nc2ccccc2Cl)[n+]2ccccc2)cc1`, the T/C by setting is: under setting [15], 96 % of control; under setting [16], 89 % of control; under setting [17], 96 % of control.

With `COc1ccc(NC(=O)Oc2cc(C)cc(C)c2)cc1`, the T/C under setting [9] was 106 % of control; the T/C under setting [12] is 100 % of control; the T/C under setting [10] was 101 % of control; the T/C under setting [13] was 97 % of control; the T/C under setting [11] was 100 % of control; the T/C under setting [14] is 92 % of control.

`O=c1cc(C(F)(F)F)nc(C(F)(F)F)[nH]1`: the T/C is 90 % of control (dose: 29.0 mg/kg/injection, schedule: Q01DX Z (ip), vehicle: methylcellulose (MC)); 89 % of control (dose: 45.0 mg/kg/injection, schedule: Q01DX Z (ip), vehicle: methylcellulose (MC)); 89 % of control (dose: 67.0 mg/kg/injection, schedule: Q01DX Z (ip), vehicle: methylcellulose (MC)); 88 % of control (dose: 100.0 mg/kg/injection, schedule: Q01DX Z (ip), vehicle: methylcellulose (MC)).

As for `CCOC(=O)NNc1ccccc1`, the T/C is 102 % of control under setting [4] and 97 % of control under setting [5].
